Test results from the OligoGym collection.
Several values for one entry are separate records, joined by “and”; a condition that tells them apart may be missing. Equal values may be shown once. After the bases stand the sugars from the 5' end (letter, count) and the backbone: PS all phosphorothioate, else s phosphorothioate and o phosphodiester by linkage. Methylation of C is not given here. e = 2'-O-(2-methoxyethyl) (MOE); k = constrained ethyl (cEt); d = 2'-deoxy (DNA)

Target: IRF4
Conditions: ASO

CTCCTTTTTTGGCTCC (sugars k3 d10 k3, PS) showed a target mRNA inhibition (SK-MEL-28, 4 µM) of 19%.
AAGCACTGGCATCGAG (sugars k3 d10 k3, PS) was tested, and the target mRNA inhibition (SK-MEL-28, 4 µM) was 27%.
TTGATAAAGGCTGAAC (sugars k3 d10 k3, PS) was tested, and the target mRNA inhibition (SK-MEL-28, 4 µM) was 67%.
AGTTAAGTACTTGGAC (sugars k3 d10 k3, PS) gave a target mRNA inhibition (SK-MEL-28, 4 µM) of 42%.
In the case of AACTGGATTGATGTGA (sugars k3 d10 k3, PS), the target mRNA inhibition (SK-MEL-28, 4 µM) is reported as 77%.
CAAAGCGCACCGCAGG (sugars k3 d10 k3, PS) showed a target mRNA inhibition (MM.1R, 1 µM) of -4%.
Work on CGTGAGAATGTTGGCT (sugars k3 d10 k3, PS) yielded a target mRNA inhibition (SK-MEL-28, 4 µM) of 49%.
Sequence CGAGAACGCACGGACG (sugars k3 d10 k3, PS) has a target mRNA inhibition (MM.1R, 1 µM) of -11%.
GCTGTTTATTTCCTAC (sugars k3 d10 k3, PS) was tested, and the target mRNA inhibition (SK-MEL-28, 4 µM) was 66%.
CGTATTTGTCGAGATC (sugars k3 d10 k3, PS) was tested, and the target mRNA inhibition (SK-MEL-28, 4 µM) was 50%.
Sequence GCTCATTTCACTGTAG (sugars k3 d10 k3, PS) has a target mRNA inhibition (SK-MEL-28, 4 µM) of 64%.
Work on GATAGATCTGTGGTAA (sugars k3 d10 k3, PS) yielded a target mRNA inhibition (MM.1R, 1 µM) of 22%.
With GCTCACCGCGCTCATG (sugars k3 d10 k3, PS) the target mRNA inhibition (SK-MEL-28, 4 µM) was 48%.
Work on TCCATTGGAGGAGGGT (sugars k3 d10 k3, PS) yielded a target mRNA inhibition (SK-MEL-28, 4 µM) of 33%.
Sequence TACTCTTAGGCACATC (sugars k3 d10 k3, PS) has a target mRNA inhibition (SK-MEL-28, 4 µM) of 59%.
For CCGAGATATAAATAGC (sugars k3 d10 k3, PS), the target mRNA inhibition (MM.1R, 0.0625 µM) was 3%, the target mRNA inhibition (MM.1R, 0.074 µM) was 7% and the target mRNA inhibition (MM.1R, 0.222 µM) was 9%. For the same sequence, the target mRNA inhibition (MM.1R, 0.25 µM) was 12%, the target mRNA inhibition (MM.1R, 0.666 µM) was 22% and the target mRNA inhibition (MM.1R, 1 µM) was 25%. It also gave a target mRNA inhibition (MM.1R, 2 µM) of 38%, a target mRNA inhibition (MM.1R, 4 µM) of 52% and a target mRNA inhibition (SK-MEL-28, 4 µM) of 61%.
Work on CCAACTTAAAATCCAC (sugars k3 d10 k3, PS) yielded a target mRNA inhibition (SK-MEL-28, 4 µM) of 9%.
CAAAACGCAGAGCCAG (sugars k3 d10 k3, PS) gave a target mRNA inhibition (SK-MEL-28, 4 µM) of 58%.
Sequence TTCAGTTGTAAATGAG (sugars k3 d10 k3, PS) has a target mRNA inhibition (SK-MEL-28, 4 µM) of 56%.
Sequence CAAGGATAACCTGAAC (sugars k3 d10 k3, PS) has a target mRNA inhibition (SK-MEL-28, 4 µM) of 26%.
With “GGCACATCAATGTTTT (sugars kdddddddddkekeke, PS)” the target mRNA inhibition (MM.1R, 1 µM) was 9% and 6%.
“AGCTTGATAAAGGCTG (sugars kkddddddddddkeke, PS)” was tested, and the target mRNA inhibition (MM.1R, 1 µM) was 1%.
Sequence CAGAATGGCGAGTTGG (sugars k3 d10 k3, PS) has a target mRNA inhibition (MM.1R, 1 µM) of 31%.
TAAAAGAGGTGCTAGG (sugars k3 d10 k3, PS) was tested, and the target mRNA inhibition (SK-MEL-28, 4 µM) was 27%.
For CGCAATTCTCCTCAAC (sugars k3 d10 k3, PS), the target mRNA inhibition (SK-MEL-28, 4 µM) was 38%.
TCTGAGGGTCTGGAAA (sugars k4 d8 k4, PS) was tested, and the target mRNA inhibition (SK-MEL-28, 4 µM) was 3%.
CCCAATACATATCCAT (sugars k3 d10 k3, PS) showed a target mRNA inhibition (SK-MEL-28, 4 µM) of 74%.
Sequence GCCAATGCAACTGAAT (sugars k3 d10 k3, PS) has a target mRNA inhibition (SK-MEL-28, 4 µM) of 36%.
Sequence ACCTACAAAATGCCTC (sugars k3 d10 k3, PS) has a target mRNA inhibition (SK-MEL-28, 4 µM) of 42%.
ATTACTAGATTGTAGG (sugars k3 d10 k3, PS) was tested, and the target mRNA inhibition (SK-MEL-28, 4 µM) was 50%.
“CCTCAGTTTGTGAAGC (sugars kkddddddddddkeke, PS)” was tested, and the target mRNA inhibition (MM.1R, 1 µM) was 16%.
ATGTGTTCTGGTAAAT (sugars k3 d10 k3, PS) was tested, and the target mRNA inhibition (MM.1R, 1 µM) was 34%.
For CGCGGACGCACGGAGA (sugars k3 d10 k3, PS), the target mRNA inhibition (SK-MEL-28, 4 µM) was 19%.
GGGTGCTCTTACAGCC (sugars k3 d10 k3, PS) gave a target mRNA inhibition (MM.1R, 1 µM) of -2%.
Sequence GACTTCGGGAGATACG (sugars k3 d10 k3, PS) has a target mRNA inhibition (SK-MEL-28, 4 µM) of 14%.
Work on CTTGAGGTTTTCCTAA (sugars k3 d10 k3, PS) yielded a target mRNA inhibition (SK-MEL-28, 4 µM) of 40%.
TTGAATAGAGGAATGG (sugars k3 d10 k3, PS) showed a target mRNA inhibition (SK-MEL-28, 4 µM) of 42%.
For “AAGCTTGATAAAGGCT (sugars kdddddddddkekeke, PS)”, the target mRNA inhibition (MM.1R, 1 µM) was 2%.
TAGGTATACTTAAGCA (sugars k3 d10 k3, PS) showed a target mRNA inhibition (SK-MEL-28, 4 µM) of 79%.
In the case of GCTATCAGGATCTCAA (sugars k3 d10 k3, PS), the target mRNA inhibition (SK-MEL-28, 4 µM) is reported as 38%.
Work on GCATGGATCCTGAGAG (sugars k3 d10 k3, PS) yielded a target mRNA inhibition (MM.1R, 1 µM) of 11%.
For TCCAACCTTTATGATT (sugars k3 d10 k3, PS), the target mRNA inhibition (MM.1R, 1 µM) was -3%.
In the case of GTACTTGCCGCTGTCG (sugars k3 d10 k3, PS), the target mRNA inhibition (SK-MEL-28, 4 µM) is reported as 27%.
For TCTTATGCATGTTCCT (sugars k3 d10 k3, PS), the target mRNA inhibition (SK-MEL-28, 4 µM) was 62%.
Sequence CAATGGAGATACTTGT (sugars k3 d10 k3, PS) has a target mRNA inhibition (MM.1R, 1 µM) of -16%.
Sequence GCTACAAAGAGCACTG (sugars k3 d10 k3, PS) has a target mRNA inhibition (SK-MEL-28, 4 µM) of 63%.
In the case of GGGAATCCCTTATTAG (sugars k3 d10 k3, PS), the target mRNA inhibition (MM.1R, 1 µM) is reported as 0%.
Sequence CAGACATACCTACAAG (sugars k3 d10 k3, PS) has a target mRNA inhibition (SK-MEL-28, 4 µM) of 44%.
With GGACACTTTTAGAGAG (sugars k3 d10 k3, PS) the target mRNA inhibition (SK-MEL-28, 4 µM) was 62%.
AACTTTTACCTGGTAT (sugars k3 d10 k3, PS) was tested, and the target mRNA inhibition (SK-MEL-28, 4 µM) was 28%.
For “TGTTACCGATGCTTCA (sugars kkdddddddddkdkdk, PS)”, the target mRNA inhibition (MM.1R, 1 µM) was 35% and 26%.
GCTCAGCATGCAAGCC (sugars k3 d10 k3, PS) showed a target mRNA inhibition (SK-MEL-28, 4 µM) of 0%.
In the case of “TGTGCTTGCCAAGCCT (sugars kkddddddddddkeke, PS)”, the target mRNA inhibition (MM.1R, 1 µM) is reported as 26% and 30%.
